Results published in patent publication US20030232986A1, “Inhibitors of caspases” (Vertex Pharmaceuticals Incorporated, priority 1998, published 2003).
Where a SMILES comes first, the peptide text is derived from it. The star is where a group is joined. Bz = O=C(c1ccccc1)*

Tests used:
Caspase-3 = molecular target: T1, Caspase-3 (Homo sapiens, UniProt P42574); assay: Caspase-3 enzyme inhibition (Ki); format: biochemical; settings: substrate Ac-DEVD-pNA 60 μM, 8% glycerol in buffer, 37° C.
T1 sequence (P42574 29-175 limits assumed): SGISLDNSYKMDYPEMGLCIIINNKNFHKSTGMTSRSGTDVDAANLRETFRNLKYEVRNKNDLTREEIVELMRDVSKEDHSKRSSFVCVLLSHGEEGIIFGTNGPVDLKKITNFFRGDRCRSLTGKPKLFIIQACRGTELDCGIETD
T1 sequence (P42574 176-277 limits assumed): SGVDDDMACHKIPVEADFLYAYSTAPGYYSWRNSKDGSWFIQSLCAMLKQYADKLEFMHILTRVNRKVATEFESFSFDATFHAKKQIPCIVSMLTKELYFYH
Protocol: (§1) Ki values for test compounds with the various caspases were obtained by the method of Margolin et al. (J. Biol. Chem., 272 pp. 7223-7228 (1997)). Assays were performed in 10 mM Tris (Sigma Corp, St Louis Mo.) pH 7.5, 1 mM Dithiothreitol (DTT, Research Organic INC, Cleveland, Ohio) and 0.1% CHAPS (Pierce, Rockford Ill.) at 37° C. For caspase-3, a solution of 8% glycerol was added to the assay buffer to improve enzyme stability. A 65 μL aliquot of the assay buffer and 5 μL aliquot of the appropriate dilutions of inhibitor in DMSO where pipetted into a 96 well plate, treated with 10 μL of caspase, then diluted in assay buffer (0.5-40 nM active protein by active site titration). A control containing DMSO but no compound was included for each determination. The plates were then incubated for 15 minutes at 37° C., before addition of the appropriate substrate (20 μL, final concentration 1-4×KM, final assay volume 100 μL) to initiate the reaction. Reaction rates were measured at 37° C. either by following the time dependant increase in absorbance at 405 nm (for the pNA substrates) or in fluorescence (Ex 390, Em 460) (for the AMC substrates). The rates obtained were plotted against inhibitor concentration and the data fit to the Morrison tight-binding equation for competitive inhibitors (Morrison, J. F., Biochem. Biophys. Acta, 185 pp. 269-286 (1969)). The substrates used for the individual assays were as follows:
Caspase-3 Ac-DEVD-pNA (Bachem, King of Prussia, Pa.) (final concentration in assay, 60 μM)

Caspase-1 = molecular target: T2, Caspase-1 (Homo sapiens, UniProt P29466); assay: Caspase-1 enzyme inhibition (Ki); format: biochemical; settings: substrate Suc-YVAD-pNA 80 μM, 37° C., pH 7.5
T2 sequence (P29466 120-297 limits assumed): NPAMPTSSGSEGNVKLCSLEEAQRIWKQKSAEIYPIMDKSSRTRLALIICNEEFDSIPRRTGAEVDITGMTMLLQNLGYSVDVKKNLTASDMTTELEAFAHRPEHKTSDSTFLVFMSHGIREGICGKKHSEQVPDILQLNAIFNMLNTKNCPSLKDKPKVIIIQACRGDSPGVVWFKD
T2 sequence (P29466 317-404 limits assumed): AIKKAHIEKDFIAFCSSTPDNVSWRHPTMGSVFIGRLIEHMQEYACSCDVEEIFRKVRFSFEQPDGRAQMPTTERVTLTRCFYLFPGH
Summary of the method: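 Ki obtained by fitting rate versus inhibitor concentration to the Morrison tight-binding equation for competitive inhibitors, with pNA release read at 405 nm at 37 °C. Substrate Suc-YVAD-pNA (80 μM final) added after 15 min enzyme–inhibitor preincubation in Tris pH 7.5 buffer with DTT and CHAPS.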

Caspase-8 = Caspase-8 (Homo sapiens, UniProt Q14790); assay: Caspase-8 enzyme inhibition (Ki); format: biochemical; settings: substrate Ac-DEVD-pNA 80 μM, 37° C.
Protocol: as §1
Caspase-8 Ac-DEVD-pNA (Bachem, King of Prussia, Pa.) (final concentration in assay 80 μM).

[1] = In vivo rat clearance assay (i.v.); settings: plasma, iv, i.v. via jugular vein
Protocol: Cannulations of the jugular and carotid vessels of rats under anesthesia are performed one day prior to the pharmacokinetic study. M. J. Free, R. A. Jaffee; ‘Cannulation techniques for the collection blood and other bodily fluids’; in: Animal Models; p. 480-495; N. J. Alexander, Ed.; Academic Press; (1978). Drug (10 mg/mL) is administered via the jugular vein in a vehicle usually consisting of: propylene glycol/saline, containing 100 mM sodium bicarbonate in a 1:1 ratio. Animals are dosed with 10-20 mg drug/kg and blood samples are drawn at 0, 2, 5, 7, 10, 15, 20, 30, 60, and 90 minutes from an indwelling carotid catheter. The blood is centrifuged to plasma and stored at −20° C. until analysis. Pharmacokinetic analysis of data is performed by non-linear regression using standard software such as RStrip (MicroMath Software, UT) and/or Pcnonlin (SCI Software, NC) to obtain clearance values.
Rat plasma is extracted with an equal volume of acetonitrile (containing 0.1% TFA). Samples are then centrifuged at approximately 1,000×g and the supernatant analyzed by gradient HPLC. A typical assay procedure is described below.
200 μL of plasma is precipitated with 200 μL of 0.1% trifluoroacetic acid (TFA) in acetonitrile and 10 μL of a 50% aqueous zinc chloride solution, vortexed then centrifuged at ^˜1000×g and the supernatant collected and analyzed by HPLC.
A standard curve is run at 20, 10, 5, 2 and 1 μg/mL concentrations.

Caspase-4 = molecular target: T3, Caspase-4 (Homo sapiens, UniProt P49662); assay: Caspase-4 enzyme inhibition (Ki); format: biochemical; settings: substrate Ac-WEHD-AMC 20 μM, 37° C.
T3 sequence (P49662 81-270 limits assumed): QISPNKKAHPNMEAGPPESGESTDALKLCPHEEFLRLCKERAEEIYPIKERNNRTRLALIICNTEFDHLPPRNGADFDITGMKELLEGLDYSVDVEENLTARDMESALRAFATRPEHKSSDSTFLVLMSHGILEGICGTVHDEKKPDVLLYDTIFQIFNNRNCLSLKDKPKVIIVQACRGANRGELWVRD
T3 sequence (P49662 290-377 limits assumed): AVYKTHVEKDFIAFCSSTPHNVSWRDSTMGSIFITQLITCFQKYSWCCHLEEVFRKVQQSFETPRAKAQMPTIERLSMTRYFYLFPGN
Protocol: as §1, with “The substrates used for the individual assays were as follows:” left out

Caspase-8, sequence (Q14790 217-374 limits assumed): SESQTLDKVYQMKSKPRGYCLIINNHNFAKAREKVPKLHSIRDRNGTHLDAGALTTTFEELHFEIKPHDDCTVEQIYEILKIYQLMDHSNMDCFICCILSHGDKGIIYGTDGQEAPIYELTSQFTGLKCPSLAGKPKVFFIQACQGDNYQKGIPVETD
Caspase-8, sequence (Q14790 385-479 limits assumed): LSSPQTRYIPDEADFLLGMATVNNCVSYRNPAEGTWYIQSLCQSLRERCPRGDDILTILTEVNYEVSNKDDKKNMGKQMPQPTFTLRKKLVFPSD

Row | Structure (SMILES) | Ki (Caspase-3) [nM] | Ki (Caspase-1) [nM] | Ki (Caspase-8) [nM] | clearance [1] [mL/min/kg] | Ki (Caspase-4) [nM]
1 | Cc1cc(C(=O)N[C@@H](C)C(=O)N2CCC[C@H]2C(=O)N[C@H](C=O)CC(=O)O)cc(C)c1O [Example 7c] | > 1000 | < 10 | > 1000 | – | –
2 | C[C@H](NC(=O)c1nccc2ccccc12)C(=O)N1CCC[C@H]1C(=O)N[C@H](C=O)CC(=O)O [Example 7d] | > 1000 | < 10 | 10 to 1000 | < 50 | –
3 | COc1ccc(C(=O)N[C@@H](C)C(=O)N2CCC[C@H]2C(=O)N[C@H](C=O)CC(=O)O)cc1 [Example 7f] | > 1000 | 10 to 1000 | > 1000 | 50 to 80 | –
4 | CS(=O)(=O)CC[C@H](NC(=O)c1nccc2ccccc12)C(=O)N1CCC[C@H]1C(=O)N[C@H](C=O)CC(=O)O [Example 20h] | – | < 10 | – | 50 to 80 | –
5 | CC[C@H](NC(=O)c1cc(Cl)c(O)c(Cl)c1)C(=O)N1CCC[C@H]1C(=O)N[C@H](C=O)CC(=O)O [Example 20m] | – | < 10 | – | < 50 | –
6 | CC(C)[C@H](NC(=O)c1ccccc1)C(=O)N1CC(c2ccccc2)[C@H]1C(=O)N[C@H](C=O)CC(=O)O (stereo partly drawn) [Example 24a] | > 1000 | < 10 | – | – | –
7 | CC(C)[C@H](NC(=O)c1ccccc1)C(=O)N[C@@H](C)C(=O)N[C@H](C=O)CC(=O)O [Example 29a] (Bz-Val-Ala-Asp-aldehyde) | > 1000 | < 10 | – | – | –
8 | COc1ccc(C(=O)NC(C(=O)N2N=C(C(C)(C)C)SC2C(=O)NC(C=O)CC(=O)O)C(C)C)cc1 (stereo not drawn) [Example 46b] | 10 to 1000 | < 10 | – | – | –
9 | Cc1cc(C(=O)N[C@H](C(=O)N2CCCC2C(=O)N[C@H](C=O)CC(=O)O)C(C)C)cc(C)c1O (stereo partly drawn) [Example 65, 3-({l-[2-(4-Hydroxy-3,5-dimethyl-benzoyiamino)-3-methyl-butyryl]-pyrrolidine-2-carbonyl}-amino)-4-oxo-butyric acid] | – | < 10 | – | > 80 | –
10 | COc1ccc(C(=O)NC(C(=O)N2CCCC2C(=O)NC(C=O)CC(=O)O)C(C)(C)C)cc1 (stereo not drawn) [Example 69, 3-({1-[2-(4-Methoxy-benzoylamino)-3,3-dimethyl-butyryl]-pyrrolidine-2-carbonyl}-amino)-4-oxo-butyric acid] | > 1000 | < 10 | 10 to 1000 | – | –
11 | C[C@H](NC(=O)c1ccc(N)c(Cl)c1)C(=O)N1CCC[C@H]1C(=O)N[C@H](C=O)CC(=O)O [Example 122b, 3-({-[2-(4-Amino-3-chloro-benzoylamino)-propionyl]-pyrrolidine-2-carbonyl}-amino)-4-oxo-butyric acid] | > 1000 | < 10 | 10 to 1000 | 50 to 80 | < 10
12 | COc1c(Cl)cc(C(=O)N[C@@H](C)C(=O)N2CCC[C@H]2C(=O)N[C@H](C=O)CC(=O)O)cc1Cl [Example 122c, 3-({1-[2-(3,5-Dichloro-4-methoxy-benzoylamino)-propionyl]-pyrrolidine-2-carbonyl}-amino)-4-oxo-butyric acid] | – | < 10 | – | > 80 | –
13 | COc1c(C)cc(C(=O)N[C@@H](C)C(=O)N2CCC[C@H]2C(=O)N[C@H](C=O)CC(=O)O)cc1C [Example 122d, 3-({1-[2-(4-Methoxy-3,5-dimethyl-benzoylamino)-propionyl]-pyrrolidine-2-carbonyl}-amino)-4-oxo-butyric acid] | > 1000 | < 10 | > 1000 | 50 to 80 | < 10
14 | CC(=O)Nc1ccc(C(=O)N[C@@H](C)C(=O)N2CCC[C@H]2C(=O)N[C@H](C=O)CC(=O)O)cc1Cl [Example 122f, 3-({1-[2-(4-Acetylamino-3-chloro-benzoylamino)-propionyl]-pyrrolidine-2-carbonyl}-amino)-4-oxo-butyric acid] | > 1000 | < 10 | 10 to 1000 | < 50 | –
15 | C[C@H](NC(=O)c1cc(Cl)c(O)c(Cl)c1)C(=O)N1CCC[C@H]1C(=O)N[C@H](C=O)CC(=O)O [Example 122k, 3-({1-[2-(3,5-Dichloro-4-hydroxy-benzoylamino)-propionyl]-pyrrolidine-2-carbonyl}-amino)-4-oxo-butyric acid] | > 1000 | < 10 | 10 to 1000 | – | –
